Values after ≈ are worked out from the molar mass of the structure shown. “Also recorded” adds a separate entry of the source.
Key:
[1] = system: M. smegmatis; experiment: microbe, parasite or virus in culture; format: cell-based, Mycobacterium smegmatis; settings: for growth of M. smegmatis culture: addition to culture
[2] = in animals; cited from earlier work
[3] = system: some species of mycobacteria; settings: cited from earlier work
[4] = target: T1, M. tuberculosis VKOR (MtbVKOR) (Mycobacterium tuberculosis, UniProt I6X5W1); format: cell-based
T1 sequence (I6X5W1 1-210): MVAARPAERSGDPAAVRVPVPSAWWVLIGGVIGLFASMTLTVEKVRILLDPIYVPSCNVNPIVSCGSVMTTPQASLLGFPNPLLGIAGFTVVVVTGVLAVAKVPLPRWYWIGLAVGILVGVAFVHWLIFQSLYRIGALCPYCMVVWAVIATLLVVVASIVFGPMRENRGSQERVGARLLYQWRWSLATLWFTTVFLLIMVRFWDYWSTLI

[5] = target: T1, M. tuberculosis VKOR (MtbVKOR); format: cell-based; remark: listed apart in the source

Structure (SMILES) | growth of M. smegmatis culture [1] | anti-coagulant properties [2] | growth of mycobacteria [3] | activity of β-galactosidase (increase indicates inhibition of disulfide bond formation) [4] | disulfide bond formation / VKOR activity [5] | levels necessary to inhibit VKOR activity in E. coli [5] | levels necessary to inhibit growth in Msmeg [1] | MIC ([1]; Mycolicibacterium smegmatis, M. smegmatis grown in Middlebrook 7H9 medium (defined medium), alamar blue assay, read-out: minimal inhibitory concentration)
CC(=O)CC(c1ccccc1)c1c(O)c2ccccc2oc1=O (stereo not drawn) [sodium warfarin] | inhibits growth | – | – | – | – | – | – | –
CC(C)=CCC/C(C)=C/CC/C(C)=C/Cc1c(O)c2ccccc2oc1=O [ferulenol] | – | has anti-coagulant properties | inhibit the growth | – | – | – | – | –
CC(=O)CC(c1ccccc1)c1c(O)c2ccccc2oc1=O (stereo not drawn) [warfarin] | caused inhibition of growth | – | – | significantly increased | inhibit the tuberculosis VKOR activity; also recorded: inhibit disulfide bond formation | high (millimolar concs.) | high (millimolar concs.) | 4.5 mM (≈ 1390 µg/mL)

Reference: patent publication US20110243958A1, “ANTIMICROBIAL AGENTS THAT TARGET BACTERIAL VKOR” (priority 2008, published 2011)
